The experiment concerns the target TNFα (Homo sapiens (Human), UniProt P01375). Nature of the experiment: TNF induced HEK-Blue assay. It is filed as cell-based. To be noted: TNFα 0.5 ng/ml; HEK-Blue-CD40L cells, NF-kB-driven secreted alkaline phosphatase reporter; 18 h. As for the experimental part: TNF or CD40L-Induced HEK-Blue Assay
Test compounds serially diluted in DMSO were plated in an assay plate (LABCYTE, Cat. # LP-0200) at final concentrations ranging from 0.004 μM to 25 μM. TNFα (final concentration 0.5 ng/ml) or CD40L (final concentration 30 ng/ml) in assay buffer [DMEM, 4.5 g/l glucose (Gibco, Cat. 21063-029), 10% FBS (Sigma, F4135), 1% Penicillin-Streptomycin (Gibco, Cat. 15140-122), 1% Anti-Anti (Gibco, Cat. 15240-112) and 2 mM L-glutamine (Gibco, Cat. 25030-081)] was then added to the assay plate. After a 30 minute pre-incubation at 37° C. and 5% CO2, HEK-Blue™-CD40L cells (INVIVOGEN, Cat. Code hkb-cd40) containing a NF-kB-driven secreted alkaline phosphatase reporter gene were seeded into the assay plate at a density of 20,000 cells per well. This plate was then incubated for 18 h at 37° C. and 5% CO2. Secreted alkaline phosphatase expression was measured using QUANTI-Blue™ (INVIVOGEN, Cat. Code rep-qb1) according to manufacturer's specifications and the assay plate was read on a PerkinElmer Envision at 620 nm.
Inhibition data for the test compound over a range of concentrations was plotted as percentage inhibition of the test compound (100%=maximum inhibition). IC50 values were determined after correcting for background [(sample read−mean of low control)/(mean of high control−mean of low control)] where by the low control is DMSO without stimulation and high control is DMSO with stimulation. The IC50 is defined as the concentration of test compound which produces 50% inhibition and was quantified using the 4 parameter logistic equation to fit the data.
Sequence of TNFα (P01375 77-233): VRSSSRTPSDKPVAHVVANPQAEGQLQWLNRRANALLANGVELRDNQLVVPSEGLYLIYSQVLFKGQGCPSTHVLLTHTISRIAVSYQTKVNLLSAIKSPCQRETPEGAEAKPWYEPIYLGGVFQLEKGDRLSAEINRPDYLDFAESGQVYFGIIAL
The term IC50 denotes the point on the concentration scale where inhibition reaches its midpoint. For the compound `CC(C)(O)c1ncc(-c2cc3c(cc2F)nc2n3[C@@H](c3ccccc3OC(F)F)[C@H]3C[C@@H]23)cn1` (racemic) [Example 1, rac-2-(5-((1aR,8R,8aS)-8-(2-(difluoromethoxy)phenyl)-4-fluoro-1,1a,8,8a-tetrahydrobenzo[d]cyclopropa[3,4]pyrrolo[1,2-a]imidazol-5-yl)pyrimidin-2-yl) propan-2-ol], the IC50 is less than 1 µM.

`Fc1cc2nc3n(c2cc1Br)[C@@H](c1ccccc1OC(F)F)[C@@H]1C[C@H]31` (racemic) [Example 11, rac-(1aR,8S,8aS)-5-bromo-8-(2-(difluoromethoxy)phenyl)-4-fluoro-1,1a,8,8a-tetrahydrobenzo[d]cyclopropa[3,4]pyrrolo[1,2-a]imidazole] registered an IC50 of 10 to 25 µM.

For the compound `CC(C)(O)c1ncc(-c2cc3c(cc2F)nc2n3[C@@H](c3ccccc3OC(F)F)[C@@H]3C[C@H]23)cn1` (racemic) [Example 20, rac-2-(5-((1aR,8S,8aS)-8-(2-(difluoromethoxy)phenyl)-4-fluoro-1,1a,8,8a-tetrahydrobenzo[d]cyclopropa[3,4]pyrrolo[1,2-a]imidazol-5-yl)pyrimidin-2-yl)propan-2-ol], the IC50 was less than 1 µM.

As for `CC(C)(O)c1ncc(-c2cc3c(cc2F)nc2n3[C@@H](c3ccccc3Oc3ccccc3)[C@@H]3C[C@H]23)cn1` (racemic) [Example 23, rac-2-(5-((1aR,8S,8aS)-4-fluoro-8-(2-phenoxyphenyl)-1,1a,8,8a-tetrahydrobenzo[d]cyclopropa[3,4]pyrrolo[1,2-a]imidazol-5-yl)pyrimidin-2-yl)propan-2-ol], the 50% inhibitory concentration (IC50) lay within 1 to 10 µM.

For `CC(C)(O)c1ncc(-c2cc3c(cc2F)nc2n3[C@@H](c3ccccc3Oc3ccccc3)[C@H]3C[C@@H]23)cn1` (racemic) [Example 24, rac-2-(5-((1aR,8R,8aS)-4-fluoro-8-(2-phenoxyphenyl)-1,1a,8,8a-tetrahydrobenzo[d]cyclopropa[3,4]pyrrolo[1,2-a]imidazol-5-yl)pyrimidin-2-yl)propan-2-ol], the IC50 was in the range of 1 to 10 µM.

Compound `CC(C)(O)c1ncc(-c2cc3c(cc2F)nc2n3[C@@H](c3ccccc3OCc3ccccc3)[C@@H]3C[C@H]23)cn1` (racemic) [Example 25, rac-2-(5-((1aR,8S,8aS)-8-(2-(benzyloxy)phenyl)-4-fluoro-1,1a,8,8a-tetrahydrobenzo[d]cyclopropa[3,4]pyrrolo[1,2-a]imidazol-5-yl)pyrimidin-2-yl)propan-2-ol] returned a half-inhibitory concentration (IC50) of 1 to 10 µM.

For `CC(C)(O)c1ncc(-c2cc3c(cc2F)nc2n3[C@@H](c3ccccc3OCc3ccccc3)[C@H]3C[C@@H]23)cn1` (racemic) [Example 26, rac-2-(5-((1aR,8R,8aS)-8-(2-(benzyloxy)phenyl)-4-fluoro-1,1a,8,8a-tetrahydrobenzo[d]cyclopropa[3,4]pyrrolo[1,2-a]imidazol-5-yl)pyrimidin-2-yl)propan-2-ol], the IC50 was 10 to 25 µM.

For `COc1ccc(-c2ccc3nc4n(c3c2)[C@@H](c2ccccc2)[C@H]2CNC[C@@H]42)cn1` (racemic) [Example 36, rac-(3aR,10S,10aS)-7-(6-methoxypyridin-3-yl)-10-phenyl-1,2,3,3a,10,10a-hexahydrobenzo[d]pyrrolo[3′,4′:3,4]pyrrolo[1,2-a]imidazole], the IC50 was in the range of 10 to 25 µM.

In turn, `COc1ccc(-c2ccc3nc4n(c3c2)[C@@H](c2ccccc2)[C@H]2CN(C(=O)NC(C)(C)C)C[C@@H]42)cn1` (racemic) [Example 37, rac-(3aR,10S,10aS)—N-(tert-butyl)-7-(6-methoxypyridin-3-yl)-10-phenyl-3,3a,10,10a-tetrahydrobenzo[d]pyrrolo[3′,4′:3,4]pyrrolo[1,2-a]imidazole-2(1H)-carboxamide] returned an IC50 of 1 to 10 µM.

In turn, `COc1ccc(-c2ccc3nc4n(c3c2)[C@@H](c2ccccc2)[C@H]2CN(C(C)=O)C[C@@H]42)cn1` (racemic) [Example 38, rac-1-((3aR,10S,10aS)-7-(6-methoxypyridin-3-yl)-10-phenyl-3,3a,10,10a-tetrahydrobenzo[d]pyrrolo[3′,4′:3,4]pyrrolo[1,2-a]imidazol-2(1H)-yl)ethan-1-one] returned an IC50 of 10 to 25 µM.

`CCNC(=O)N1C[C@H]2[C@@H](C1)c1nc3ccc(-c4ccc(OC)nc4)cc3n1[C@H]2c1ccccc1` (racemic) [Example 39, rac-(3aR,10S,10aS)—N-ethyl-7-(6-methoxypyridin-3-yl)-10-phenyl-3,3a,10,10a-tetrahydrobenzo[d]pyrrolo[3′,4′:3,4]pyrrolo[1,2-a]imidazole-2(1H)-carboxamide] yielded a half-maximal inhibitory concentration (IC50) of 1 to 10 µM.

In the case of `COc1ccc(-c2ccc3nc4n(c3c2)[C@@H](c2ccccc2)[C@H]2CN(C(=O)OC(C)(C)C)C[C@@H]42)cn1` (racemic) [Example 40, rac-tert-butyl (3aR,10S,10aS)-7-(6-methoxypyridin-3-yl)-10-phenyl-3,3a,10,10a-tetrahydrobenzo[d]pyrrolo[3′,4′:3,4]pyrrolo[1,2-a]imidazole-2(1H)-carboxylate], the IC50 was in the range of 10 to 25 µM.

Compound `COc1ccc(-c2ccc3nc4n(c3c2)[C@@H](c2ccccc2)[C@H]2CN(C(=O)c3ccccc3)C[C@@H]42)cn1` (racemic) [Example 41, rac-((3aR,10S,10aS)-7-(6-methoxypyridin-3-yl)-10-phenyl-3,3a,10,10a-tetrahydrobenzo[d]pyrrolo[3′,4′:3,4]pyrrolo[1,2-a]imidazol-2(1H)-yl)(phenyl)methanone] yielded an IC50 of 10 to 25 µM.

For `COc1ccc(-c2ccc3nc4n(c3c2)[C@@H](c2ccccc2)[C@H]2CC=CC[C@@H]42)cn1` (racemic) [Example 42, rac-(4aR,11R,11aS)-8-(6-methoxypyridin-3-yl)-1-phenyl-4,4a,11,11a-tetrahydro-1H-benzo[4,5]imidazo[2,1-a]isoindole], the IC50 lay in the range of 10 to 25 µM.

`CNC(=O)c1ccc(-c2ccc3nc4n(c3c2)[C@@H](c2cc(C)ccc2C)[C@H]2[C@H](c3ccccc3)[C@@H]42)cn1` (racemic) [Example 43, rac-5-((1R,1aS,8S,8aR)-8-(2,5-dimethylphenyl)-1-phenyl-1,1a,8,8a-tetrahydrobenzo[d]cyclopropa[3,4]pyrrolo[1,2-a]imidazol-5-yl)-N-methylpicolinamide]: the IC50 was 10 to 25 µM.

The compound `CC(C)(O)c1ncc(-c2cc3c(cc2F)nc2n3[C@H](c3ccccc3OC(F)F)[C@H]3C[C@@H]23)cn1` (stereo in doubt) [Example 21, 2-(5-((1aR,8S,8aS)-8-(2-(difluoromethoxy)phenyl)-4-fluoro-1,1a,8,8a-tetrahydrobenzo[d]cyclopropa[3,4]pyrrolo[1,2-a]imidazol-5-yl)pyrimidin-2-yl)propan-2-ol] returned an IC50 of less than 1 µM.

Turning to `CC(C)(O)c1ncc(-c2cc3c(cc2F)nc2n3[C@@H](c3ccccc3OC(F)F)[C@H]3C[C@@H]23)cn1` [Example 2, 2-(5-((1aR,8R,8aS)-8-(2-(difluoromethoxy)phenyl)-4-fluoro-1,1a,8,8a-tetrahydrobenzo[d]cyclopropa[3,4]pyrrolo[1,2-a]imidazol-5-yl)pyrimidin-2-yl)propan-2-ol], the IC50 is less than 1 µM.

With `CC(C)(O)c1ncc(-c2cc3c(cc2F)nc2n3[C@H](c3ccccc3OC(F)F)[C@@H]3C[C@H]23)cn1` [Example 3, 2-(5-((1aS,8S,8aR)-8-(2-(difluoromethoxy)phenyl)-4-fluoro-1,1a,8,8a-tetrahydrobenzo[d]cyclopropa[3,4]pyrrolo[1,2-a]imidazol-5-yl)pyrimidin-2-yl)propan-2-ol], the IC50 is less than 1 µM.

Turning to `O=C(O)CN1CCN(c2ncc(-c3cc4c(cc3F)nc3n4[C@@H](c4ccccc4OC(F)F)[C@H]4C[C@@H]34)cn2)CC1` [Example 4, 2-(4-(5-((1aR,8R,8aS)-8-(2-(difluoromethoxy)phenyl)-4-fluoro-1,1a,8,8a-tetrahydrobenzo[d]cyclopropa[3,4]pyrrolo[1,2-a]imidazol-5-yl)pyrimidin-2-yl)piperazin-1-yl)acetic acid], the IC50 was less than 1 µM.

In turn, `NS(=O)(=O)c1ccc(-c2cc3c(cc2F)nc2n3[C@@H](c3ccccc3OC(F)F)[C@H]3C[C@@H]23)cc1` [Example 5, 4-((1aR,8R,8aS)-8-(2-(difluoromethoxy)phenyl)-4-fluoro-1,1a,8,8a-tetrahydrobenzo[d]cyclopropa[3,4]pyrrolo[1,2-a]imidazol-5-yl)benzenesulfonamide] yielded an IC50 of less than 1 µM.

In the case of `Fc1cc2nc3n(c2cc1-c1cnc(N2CCOCC2)nc1)[C@@H](c1ccccc1OC(F)F)[C@H]1C[C@@H]31` [Example 6, 4-(5-((1aR,8R,8aS)-8-(2-(difluoromethoxy)phenyl)-4-fluoro-1,1a,8,8a-tetrahydrobenzo[d]cyclopropa[3,4]pyrrolo[1,2-a]imidazol-5-yl)pyrimidin-2-yl)morpholine], the IC50 is less than 1 µM.

In the case of `NC(=O)c1ccc(-c2cc3c(cc2F)nc2n3[C@@H](c3ccccc3OC(F)F)[C@H]3C[C@@H]23)cn1` [Example 7, 5-((1aR,8R,8aS)-8-(2-(difluoromethoxy)phenyl)-4-fluoro-1,1a,8,8a-tetrahydrobenzo[d]cyclopropa[3,4]pyrrolo[1,2-a]imidazol-5-yl)picolinamide], the concentration for half-maximal inhibition (IC50) is less than 1 µM.

The record behind these values is US10335392B2, “Cyclic compounds useful as modulators of TNF α” (BRISTOL-MYERS SQUIBB COMPANY, priority 2015, dated 2019).
